Test results reported in PubChem BioAssay (NCI).
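48-hour exposure; five concentrations; linearly interpolated endpoints. The concentration for full growth arrest is given as TGI.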

What was measured:
Test in all cases: NCI-60 cell line screen, 48 h
[1] = system: SF-539 CNS
[2] = system: OVCAR-5 ovarian
[3] = system: RPMI-8226 leukemia
[4] = system: SF-295 CNS
[5] = system: M14 melanoma
[6] = system: HL-60(TB) leukemia
[7] = system: COLO 205 colon
[8] = system: SK-MEL-5 melanoma
[9] = system: SNB-75 CNS
[10] = system: OVCAR-8 ovarian
[11] = system: T-47D breast
[12] = system: UACC-257 melanoma
[13] = system: DU-145 prostate
[14] = system: HCT-116 colon
[15] = system: U251 CNS
[16] = system: BT-549 breast
[17] = system: HOP-92 NSCLC
[18] = system: NCI-H23 lung
[19] = system: SK-MEL-28 melanoma
[20] = system: SK-MEL-2 melanoma
[21] = system: A498 renal
[22] = system: CCRF-CEM leukemia
[23] = system: HS 578T breast
[24] = system: LOX IMVI melanoma
[25] = system: KM12 colon
[26] = system: SK-OV-3 ovarian
[27] = system: SF-268 CNS
[28] = system: IGROV1 ovarian
[29] = system: SNB-19 CNS
[30] = system: 786-0 renal
[31] = system: RXF 393 renal
[32] = system: SN12C renal
[33] = system: A549 NSCLC
[34] = system: UACC-62 melanoma
[35] = system: MDA-MB-435
[36] = system: HOP-62 NSCLC
[37] = system: MDA-N
[38] = system: NCI/ADR-RES ovarian
[39] = system: HCC-2998 colon
[40] = system: OVCAR-3 ovarian
[41] = system: PC-3 prostate
[42] = system: NCI-H226 lung
[43] = system: EKVX NSCLC
[44] = system: MCF7 breast
[45] = system: HT29 colon
[46] = system: OVCAR-4 ovarian
[47] = system: SW-620 colon
[48] = system: UO-31 renal
[49] = system: ACHN renal
[50] = system: K-562 leukemia
[51] = system: MDA-MB-231 breast
[52] = system: HCT-15 colon
[53] = system: MOLT-4 leukemia
[54] = system: CAKI-1 renal
[55] = system: MALME-3M melanoma
[56] = system: NCI-H460 lung
[57] = system: NCI-H522 lung
[58] = system: TK-10 renal

COc1cc(C2C3=C(N=C4SC(C(C)=O)=C(C)N42)c2ccccc2CC3)cc(OC)c1OC (centres undefined)
TGI [1]: > 100 µM | TGI [2]: > 100 µM | TGI [3]: 93.4 µM | TGI [4]: > 100 µM | TGI [5]: > 100 µM | TGI [6]: 81.4 µM | TGI [7]: > 100 µM | TGI [8]: > 100 µM | TGI [9]: > 100 µM | TGI [10]: > 100 µM | TGI [11]: 50.9 µM | TGI [12]: > 100 µM | TGI [13]: > 100 µM | TGI [14]: > 100 µM | TGI [15]: > 100 µM | TGI [16]: > 100 µM | TGI [17]: > 100 µM | TGI [18]: > 100 µM | TGI [19]: > 100 µM | TGI [20]: > 100 µM | TGI [21]: > 100 µM | TGI [22]: > 100 µM | TGI [23]: > 100 µM | TGI [24]: > 100 µM | TGI [25]: > 100 µM | TGI [26]: > 100 µM | TGI [27]: > 100 µM | TGI [28]: > 100 µM | TGI [29]: > 100 µM | TGI [30]: > 100 µM | TGI [31]: > 100 µM | TGI [32]: > 100 µM | TGI [33]: > 100 µM | TGI [34]: > 100 µM | TGI [35]: > 100 µM | TGI [36]: > 100 µM | TGI [37]: > 100 µM | TGI [38]: > 100 µM | TGI [39]: > 100 µM | TGI [40]: > 100 µM | TGI [41]: > 100 µM | TGI [42]: > 100 µM | TGI [43]: > 100 µM | TGI [44]: > 100 µM | TGI [45]: > 100 µM | TGI [46]: > 100 µM | TGI [47]: > 100 µM | TGI [48]: > 100 µM | TGI [49]: > 100 µM | TGI [50]: 85.2 µM | TGI [51]: > 100 µM

O=C1CC(Cl)c2c(Cl)sc(Cl)c21 (centres undefined)
TGI [1]: 8.32 µM | TGI [2]: 34.7 µM | TGI [4]: 31.7 µM | TGI [52]: 5.07 µM | TGI [5]: 3.94 µM | TGI [6]: 3.23 µM | TGI [7]: 3.7 µM | TGI [8]: 26.2 µM | TGI [9]: 22.8 µM | TGI [10]: 3.32 µM | TGI [11]: > 22 µM | TGI [12]: 9.25 µM | TGI [13]: 7.13 µM | TGI [14]: 3.12 µM | TGI [16]: 13.3 µM | TGI [17]: 3.44 µM | TGI [18]: 9.32 µM | TGI [53]: 2.37 µM | TGI [19]: 4.58 µM | TGI [20]: > 25.5 µM | TGI [21]: 27.3 µM | TGI [23]: > 27.9 µM | TGI [24]: 3.15 µM | TGI [25]: 4.03 µM | TGI [54]: 3.18 µM | TGI [26]: 33.3 µM | TGI [55]: 6.63 µM | TGI [27]: 5.51 µM | TGI [28]: 5.09 µM | TGI [29]: 24 µM | TGI [30]: 2.82 µM | TGI [56]: 40 µM | TGI [57]: 4.51 µM | TGI [32]: 3.15 µM | TGI [33]: 12.7 µM | TGI [34]: 4.66 µM | TGI [35]: 6.34 µM | TGI [36]: 18.6 µM | TGI [37]: 5.94 µM | TGI [38]: > 28.5 µM | TGI [39]: 5.54 µM | TGI [58]: 4.51 µM | TGI [41]: 5.64 µM | TGI [42]: 28.8 µM | TGI [43]: 16.4 µM | TGI [44]: 2.11 µM | TGI [45]: 5.93 µM | TGI [46]: 10.3 µM | TGI [47]: 3.61 µM | TGI [48]: 3.67 µM | TGI [49]: 3.45 µM | TGI [50]: > 100 µM | TGI [51]: > 25.7 µM

CC1=CC(=O)/C(=C/N2CCNC2=S)C(=O)O1
TGI [1]: > 100 µM | TGI [2]: > 100 µM | TGI [3]: > 100 µM | TGI [4]: > 100 µM | TGI [52]: > 100 µM | TGI [5]: > 100 µM | TGI [6]: > 100 µM | TGI [7]: > 100 µM | TGI [8]: > 100 µM | TGI [9]: > 100 µM | TGI [10]: > 100 µM | TGI [11]: > 100 µM | TGI [12]: > 100 µM | TGI [13]: > 100 µM | TGI [14]: > 100 µM | TGI [15]: > 100 µM | TGI [16]: > 100 µM | TGI [17]: > 100 µM | TGI [18]: > 100 µM | TGI [53]: > 100 µM | TGI [20]: > 100 µM | TGI [21]: > 100 µM | TGI [22]: > 100 µM | TGI [23]: > 100 µM | TGI [24]: > 100 µM | TGI [25]: > 100 µM | TGI [54]: > 100 µM | TGI [26]: > 100 µM | TGI [27]: > 100 µM | TGI [28]: > 100 µM | TGI [29]: > 100 µM | TGI [30]: > 100 µM | TGI [56]: > 100 µM | TGI [31]: > 100 µM | TGI [57]: > 100 µM | TGI [32]: > 100 µM | TGI [33]: > 100 µM | TGI [34]: > 100 µM | TGI [35]: > 100 µM | TGI [36]: > 100 µM | TGI [37]: > 100 µM | TGI [38]: > 100 µM | TGI [39]: > 100 µM | TGI [58]: > 100 µM | TGI [41]: > 100 µM | TGI [42]: > 100 µM | TGI [43]: > 100 µM | TGI [44]: > 100 µM | TGI [45]: > 100 µM | TGI [46]: > 100 µM | TGI [47]: > 100 µM | TGI [48]: > 100 µM | TGI [49]: > 100 µM | TGI [50]: > 100 µM | TGI [51]: > 100 µM

O=C(NC(CO)CO)c1ccc2cc(C(=O)N3CC(CCl)c4ccc([N+](=O)[O-])cc43)[nH]c2c1 (centres undefined)
TGI [1]: > 100 µM | TGI [2]: > 100 µM | TGI [4]: > 100 µM | TGI [52]: > 100 µM | TGI [5]: > 100 µM | TGI [6]: > 100 µM | TGI [7]: > 100 µM | TGI [8]: > 100 µM | TGI [9]: > 100 µM | TGI [10]: > 100 µM | TGI [11]: 64.2 µM | TGI [12]: > 100 µM | TGI [13]: > 100 µM | TGI [14]: > 100 µM | TGI [15]: > 100 µM | TGI [16]: > 100 µM | TGI [17]: > 100 µM | TGI [18]: > 100 µM | TGI [53]: > 100 µM | TGI [19]: > 100 µM | TGI [20]: > 100 µM | TGI [22]: > 100 µM | TGI [23]: > 100 µM | TGI [24]: > 100 µM | TGI [25]: > 100 µM | TGI [54]: > 100 µM | TGI [26]: > 100 µM | TGI [55]: > 100 µM | TGI [27]: > 100 µM | TGI [28]: > 100 µM | TGI [29]: > 100 µM | TGI [30]: > 100 µM | TGI [56]: > 100 µM | TGI [31]: > 100 µM | TGI [32]: > 100 µM | TGI [33]: > 100 µM | TGI [34]: > 100 µM | TGI [35]: > 100 µM | TGI [36]: > 100 µM | TGI [37]: > 100 µM | TGI [38]: > 100 µM | TGI [39]: > 100 µM | TGI [40]: > 100 µM | TGI [58]: > 100 µM | TGI [41]: > 100 µM | TGI [42]: > 100 µM | TGI [43]: > 100 µM | TGI [44]: > 100 µM | TGI [45]: > 100 µM | TGI [46]: > 100 µM | TGI [47]: > 100 µM | TGI [48]: > 100 µM | TGI [49]: > 100 µM | TGI [50]: > 100 µM | TGI [51]: > 100 µM
